Values quoted from earlier work, collected in patent publication US20120059599A1, “HYBRID FRAGMENT-LIGAND MODELING FOR C[…] COMPOUNDS” (UNIVERSITY OF LOUISVILLE, priority 2010, published 2012).

What was measured:
humans = details: IARC
estrogen receptor = details: has been demonstrated
Salmonella = details: reported in the CPDB
experimental animals = details: IARC
mammary = details: reported in the CPDB
[1] = has been demonstrated

Structure (SMILES) | evidence to determine carcinogenicity in humans (humans) | estrogen receptor ligand (estrogen receptor) | Salmonella mutagenicity (Salmonella) | evidence for carcinogenicity in experimental animals (experimental animals) | mammary carcinogenicity (mammary) | genotoxic carcinogen [1]
Cn1c(N)nc2ncc(-c3ccccc3)cc21 [PhIP, 2-amino-1-methyl-6-phenylimidazo[4,5-b]pyridine] | inadequate evidence | estrogen receptor ligand | mutagen | antiquated evidence | mammary carcinogen | genotoxic carcinogen
CCNc1nc(Cl)nc(NC(C)C)n1 [Atrazine] |  |  | non-mutagen |  |  | 
